Where a name gives a salt, the structure may show the parent alone. Read-outs that look alike come from different tables or passages of the source.
What was measured:
[1] = in vivo; conditions: mouse, oral, ddy male mice, deaths counted at 10 days, Weil method, read-out: Acute toxicity LD50
Description: ddy male mice (weighing 18-23 g, one group: 5 animals) were fasted overnight, and thereto was orally administered a suspension of the test compounds in 1% arabic gum solution.

[2] = system: Platelet aggregation (collagen); experiment: Platelet aggregation inhibitory activity, ex vivo after oral administration to guinea pigs, collagen as aggregating agent; assay type: in vivo, Hartley strain male guinea pigs; conditions: Cavia porcellus, read-out: Platelet aggregation inhibitory activity Collagen ED50
Procedure: (§1) Hartley strain male guinea pigs (weighing 300-350 g, one group: three animals) were fasted overnight, and to the animals were orally administered a solution or suspension of the test compounds in corn oil-10% arabic gum. […] The citrated blood thus obtained was centrifuged at 1,700 rpm for 10 minutes, and a platelet-rich plasma (PRP) was obtained from the supernatant. After isolating PRP, the remaining blood was further centrifuged at 3,000 rpm for 10 minutes, and a platelet-poor plasma (PPP) was obtained from the supernatant.
(§2) The PRP (450 μl) thus obtained was incubated at 37° C. for 3 minutes, and thereto was added 1.0 mM sodium arachidonate (50 μl) as an aggregating agent, and then the platelet aggregation thereof was measured with Platelet Aggregation Profiler® (Model PAP-3, manufactured by Bio Data Corp.) while using the PPP obtained above as a blank. As a control, as to animals to which no test compound was administered, the platelet aggregation rate was measured likewise.
(§3) The platelet aggregation inhibitory rate was calculated by the following equation. [formula]
Moreover, the above method was repeated except that 100 μg/ml collagen suspension (50 μl) was used as an aggregating agent instead of sodium arachidonate.

[3] = system: Platelet aggregation (arachidonate); experiment: Platelet aggregation inhibitory activity, ex vivo after oral administration to guinea pigs, sodium arachidonate as aggregating agent; assay type: in vivo, Hartley strain male guinea pigs; conditions: Cavia porcellus, read-out: Platelet aggregation inhibitory activity Arachidonate ED50
Procedure: as §1, §2, §3

[4] = oral, guinea pig, blood collected after 3 hours, 100 μg/ml collagen suspension (50 μl), 50% inhibitory rate
[5] = oral, guinea pig, blood collected after 3 hours, 1.0 mM sodium arachidonate (50 μl), 50% inhibitory rate

SMILES | LD50 at 240 h [1] | ED50 ([2]; po, 3 h) | ED50 ([3]; po, 3 h) | ED50 [2, 4] | ED50 [3, 5]
CC(=O)Oc1ccccc1C(=O)O [Aspirin, reference compound] | 1060 mg/kg | 58.9 mg/kg | 38.2 mg/kg | – | –
COc1ccc(-c2nc(C(F)(F)F)sc2-c2ccc(OC)cc2)cc1 [Compd. A, 4,5-bis(4-methoxyphenyl)-2-trifluoromethylthiazole, reference compound] | > 3000 mg/kg | – | – | 1.29 mg/kg | 0.54 mg/kg
COc1ccc(-c2nc(-c3ccc(F)cc3)sc2-c2ccc(OC)cc2)cc1 [Compd. B, 4,5-bis(4-methoxyphenyl)-2-(4-fluorophenyl)thiazole, reference compound] | > 3000 mg/kg | – | – | 1.2 mg/kg | 1.24 mg/kg
COc1ccc(-c2nc(-c3cccn3C)[nH]c2-c2ccc(OC)cc2)cc1 [Compd. C, 4,5-bis(4-methoxyphenyl)-2-(1-methylpyrrol-2-yl)imidazole, reference compound] | > 3000 mg/kg | – | – | 2.51 mg/kg | 1.21 mg/kg
CCn1cccc1-c1nc(-c2ccc(OC)cc2)c(-c2ccc(OC)cc2)s1 [Ex. 1, 4,5-Bis(4-methoxyphenyl)-2-(1-ethylpyrrol-2-yl)-thiazole] | > 3000 mg/kg | – | – | 0.91 mg/kg | 0.47 mg/kg
COc1ccc(-c2nc(-c3cccn3C(C)C)sc2-c2ccc(OC)cc2)cc1 [Ex. 2, 4,5-Bis(4-methoxyphenyl)-2-(1-isopropylpyrrol-2-yl)thiazole] | > 3000 mg/kg | – | – | 0.63 mg/kg | 0.29 mg/kg
CCCn1cccc1-c1nc(-c2ccc(OC)cc2)c(-c2ccc(OC)cc2)s1 [Ex. 3, 4,5-Bis(4-methoxyphenyl)-2-(1-n-propylpyrrol-2-yl)thiazole] | > 3000 mg/kg | – | – | 0.52 mg/kg | 0.32 mg/kg
COc1ccc(-c2nc(-c3cccn3CC(C)C)sc2-c2ccc(OC)cc2)cc1 [Ex. 4, 4,5-Bis(4-methoxyphenyl)-2-(1-isobutylpyrrol-2-yl)thiazole] | > 3000 mg/kg | – | – | 0.78 mg/kg | 0.41 mg/kg
C=CCn1cccc1-c1nc(-c2ccc(OC)cc2)c(-c2ccc(OC)cc2)s1 [Ex. 5, 4,5-Bis(4-methoxyphenyl)-2-(1-allylpyrrol-2-yl)-thiazole] | > 3000 mg/kg | – | – | 0.55 mg/kg | 0.4 mg/kg
C#CCn1cccc1-c1nc(-c2ccc(OC)cc2)c(-c2ccc(OC)cc2)s1 [Ex. 6, 4,5-Bis(4-methoxyphenyl)-2-(1-propargylpyrrol-2-yl)thiazole] | > 3000 mg/kg | – | – | 0.92 mg/kg | 0.22 mg/kg
COc1ccc(-c2nc(-c3cccn3CC(F)(F)F)sc2-c2ccc(OC)cc2)cc1 [Ex. 7, 4,5-Bis(4-methoxyphenyl)-2-[1-(2,2,2-trifluoroethyl)pyrrol-2-yl]thiazole] | > 3000 mg/kg | – | – | 0.51 mg/kg | 0.47 mg/kg
COC(=O)Cn1cccc1-c1nc(-c2ccc(OC)cc2)c(-c2ccc(OC)cc2)s1 [Ex. 13, methyl 2-[4,5-bis(4-methoxyphenyl)thiazol-2-yl]pyrrole-1-acetate] | > 3000 mg/kg | – | – | 0.89 mg/kg | 0.26 mg/kg
CCOC(=O)Cn1cccc1-c1nc(-c2ccc(OC)cc2)c(-c2ccc(OC)cc2)s1 [Ex. 14, ethyl 2-[4,5-bis(4-methoxyphenyl)thiazol-2-yl]pyrrole-1-acetate] | > 3000 mg/kg | – | – | 0.19 mg/kg | 0.088 mg/kg
CCCOC(=O)Cn1cccc1-c1nc(-c2ccc(OC)cc2)c(-c2ccc(OC)cc2)s1 [Ex. 15, n-Propyl 2-[4,5-bis(4-methoxyphenyl)thiazol-2-yl]-pyrrole-1-acetate] | > 3000 mg/kg | – | – | 0.11 mg/kg | 0.072 mg/kg
COc1ccc(-c2nc(-c3cccn3CC(=O)OC(C)C)sc2-c2ccc(OC)cc2)cc1 [Ex. 16, isopropyl 2-[4,5-bis(4-methoxyphenyl)thiazol-2-yl]pyrrole-1-acetate] | > 3000 mg/kg | – | – | 0.11 mg/kg | 0.061 mg/kg
CCCCOC(=O)Cn1cccc1-c1nc(-c2ccc(OC)cc2)c(-c2ccc(OC)cc2)s1 [Ex. 17, n-Butyl 2-[4,5-bis(4-methoxyphenyl)thiazol-2-yl]-pyrrole-1-acetate] | > 3000 mg/kg | – | – | 0.19 mg/kg | 0.15 mg/kg
COc1ccc(-c2nc(-c3cccn3CC(=O)OCC(C)C)sc2-c2ccc(OC)cc2)cc1 [Ex. 18, Isobutyl 2-[4,5-bis(4-methoxyphenyl)thiazol-2-yl]-pyrrole-1-acetate] | > 3000 mg/kg | – | – | 0.12 mg/kg | 0.072 mg/kg

SMILES | LD50 at 240 h [1] | ED50 ([2]; po, 3 h) | ED50 ([3]; po, 3 h) | ED50 [2, 4] | ED50 [3, 5]
CCC(C)OC(=O)Cn1cccc1-c1nc(-c2ccc(OC)cc2)c(-c2ccc(OC)cc2)s1 (centres unmarked) [Ex. 19, sec-Butyl 2-[4,5-bis(4-methoxyphenyl)thiazol-2-yl]pyrrole-1-acetate] | > 3000 mg/kg | – | – | 0.11 mg/kg | 0.12 mg/kg
CCCCCOC(=O)Cn1cccc1-c1nc(-c2ccc(OC)cc2)c(-c2ccc(OC)cc2)s1 [Ex. 20, n-pentyl 2-[4,5-bis(4-methoxyphenyl)thiazol-2-yl]pyrrole-1-acetate] | > 3000 mg/kg | – | – | 0.49 mg/kg | 0.28 mg/kg
COc1ccc(-c2nc(-c3cccn3CC(=O)OCCC(C)C)sc2-c2ccc(OC)cc2)cc1 [Ex. 21, Isopentyl 2-[4,5-bis(4-methoxyphenyl)thiazol-2-yl]pyrrole-1-acetate] | > 3000 mg/kg | – | – | 0.22 mg/kg | 0.12 mg/kg
COc1ccc(-c2nc(-c3cccn3CC(=O)OCC(C)(C)C)sc2-c2ccc(OC)cc2)cc1 [Ex. 22, Neopentyl 2-[4,5-bis(4-methoxyphenyl)thiazol-2-yl]pyrrole-1-acetate] | > 3000 mg/kg | – | – | 0.4 mg/kg | 0.11 mg/kg
CCC(C)COC(=O)Cn1cccc1-c1nc(-c2ccc(OC)cc2)c(-c2ccc(OC)cc2)s1 (centres unmarked) [Ex. 23, 2-methyl-1-butyl 2-[4,5-bis(4-methoxyphenyl)thiazol-2-yl]pyrrole-1-acetate] | > 3000 mg/kg | – | – | 0.14 mg/kg | 0.073 mg/kg
CCCC(C)OC(=O)Cn1cccc1-c1nc(-c2ccc(OC)cc2)c(-c2ccc(OC)cc2)s1 (centres unmarked) [Ex. 24, 2-pentyl 2-[4,5-bis(4-methoxyphenyl)thiazol-2-yl]pyrrole-1-acetate] | > 3000 mg/kg | – | – | 0.22 mg/kg | 0.12 mg/kg
CCC(CC)OC(=O)Cn1cccc1-c1nc(-c2ccc(OC)cc2)c(-c2ccc(OC)cc2)s1 [Ex. 25, 3-pentyl 2-[4,5-bis(4-methoxyphenyl)thiazol-2-yl]pyrrole-1-acetate] | > 3000 mg/kg | – | – | 0.34 mg/kg | 0.12 mg/kg
COc1ccc(-c2nc(-c3cccn3CC(=O)OC(C)C(C)C)sc2-c2ccc(OC)cc2)cc1 (centres unmarked) [Ex. 26, 3-methyl-2-butyl 2-[4,5-bis(4-methoxyphenyl)thiazol-2-yl]pyrrole-1-acetate] | > 3000 mg/kg | – | – | 0.34 mg/kg | 0.26 mg/kg
CCCCCCOC(=O)Cn1cccc1-c1nc(-c2ccc(OC)cc2)c(-c2ccc(OC)cc2)s1 [Ex. 27, n-hexyl 2-[4,5-bis(4-methoxyphenyl)thiazol-2-yl]pyrrole-1-acetate] | > 3000 mg/kg | – | – | 0.22 mg/kg | 0.21 mg/kg
CCCCCCCCOC(=O)Cn1cccc1-c1nc(-c2ccc(OC)cc2)c(-c2ccc(OC)cc2)s1 [Ex. 28, n-octyl 2-[4,5-bis(4-methoxyphenyl)thiazol-2-yl]pyrrole-1-acetate] | > 3000 mg/kg | – | – | 0.44 mg/kg | 0.39 mg/kg
C=CCOC(=O)Cn1cccc1-c1nc(-c2ccc(OC)cc2)c(-c2ccc(OC)cc2)s1 [Ex. 29, allyl 2-[4,5-bis(4-methoxyphenyl)thiazol-2-yl]pyrrole-1-acetate] | > 3000 mg/kg | – | – | 0.11 mg/kg | 0.047 mg/kg
C#CCOC(=O)Cn1cccc1-c1nc(-c2ccc(OC)cc2)c(-c2ccc(OC)cc2)s1 [Ex. 30, Propargyl 2-[4,5-bis(4-methoxyphenyl)thiazol-2-yl]pyrrole-1-acetate] | > 3000 mg/kg | – | – | 0.068 mg/kg | 0.039 mg/kg
COc1ccc(-c2nc(-c3cccn3CC(=O)OCc3ccccc3)sc2-c2ccc(OC)cc2)cc1 [Ex. 31, benzyl 2-[4,5-bis(4-methoxyphenyl)thiazol-2-yl]pyrrole-1-acetate] | > 3000 mg/kg | – | – | 0.16 mg/kg | 0.11 mg/kg
CCOCn1cccc1-c1nc(-c2ccc(OC)cc2)c(-c2ccc(OC)cc2)s1 [Ex. 36, 4,5-Bis(4-methoxyphenyl)-2-(1-ethoxymethylpyrrol-2-yl)thiazole] | > 3000 mg/kg | – | – | 0.98 mg/kg | 0.45 mg/kg
CCCOCn1cccc1-c1nc(-c2ccc(OC)cc2)c(-c2ccc(OC)cc2)s1 [Ex. 37, 4,5-Bis(4-methoxyphenyl)-2-(1-n-propoxymethylpyrrol-2-yl)thiazole] | > 3000 mg/kg | – | – | 0.61 mg/kg | 0.49 mg/kg
Clc1ccccc1CN1CCc2sccc2C1 [Ticlopidine.HCl, Ticlopidine hydrochloride, reference compound] | – | – | – | 300 mg/kg | > 300 mg/kg

From patent publication US4659726A, “Novel 4,5-Bis (4-methoxyphenyl)-2-(pyrrol-2-yl) thiazoles and pharmaceutical composition containing the same” (Kanebo, Ltd., priority 1984, dated 1987)
